According to patent US8586103B2, “Non-polymeric compositions for controlled drug delivery” (Foresee Pharmaceuticals, LLC, priority 2008, dated 2013):
Structures can show the parent of a compound that is named as a salt.

What was measured:
Assay type in all cases: physicochemical
[1] = In vitro release of doxorubicin from SAIB/NMP formulations; conditions: for Release (%) of DOX: 24 h, PBS 7.4, 37° C., 6% DOX loading
Protocol: Formulations were prepared using doxorubicin-HCl (DOX-HCl) and doxorubicin docusate (DOX-DSS) complex powders. Formulations were prepared by mixing DOX-HCL and DOX-DSS with SAIB solution in NMP to achieve 6% DOX loading as shown in Table 6.
An aliquot of the suspension was used for studying the in vitro release of DOX from different formulations. About 0.1 mL of each DOX formulation was injected into 3 mL of releasing buffer (PBS 7.4, containing 0.1% sodium azide) in a 4 mL glass vial. The vials were incubated at 37° C. and sampled at various time points. At each time point, 2 mL of release medium was removed and replaced with 2 mL of fresh release medium. The collected samples were analyzed for peptide concentration and integrity by HPLC using an YMC-Pack ODS-120A column. Triplicate samples were used for each formulation.

[2] = Phase behaviour of lysozyme SAIB/NMP pellets in PBS buffer; conditions: about 6% with 90% SAIB in NMP, shaker at 37° C.
Protocol: Formulations containing about 6% LYZ and LYZ-DSS (85.2% LYZ) with 90% SAIB in NMP were prepared. Injections of roughly 100 mg were made into vials with 3 mL PBS buffer and 0.1% NaN3. Gel-like pellets were formed at room temperature and put on a shaker at 37° C. […] An improved depot system was achieved the complexation of lysozyme with amphiphilic molecule DSS.

[3] = Appearance and phase separation of octreotide formulations in SAIB/NMP; conditions: for appearance when combined with SAIB/NMP solution: octreotide about 6%
Protocol: A solution of sucrose acetate isobutyrate (SAIB) in N-methyl-2-pyrrolidone (NMP) at a concentration of 80% by weight was prepared by combining 2 g NMP with 8 g SAIB followed by gentle mixing. A clear, low viscosity solution was obtained. Then 60 mg octreotide acetate was dissolved in 100 μL NMP which was combined with 900 μL SAIB solution in NMP (80%) and mixed well to obtain a formulation containing about 6% of octreotide acetate.
Since both SAIB and octreotide acetate were quite soluble in NMP, a clear solution was expected after two solutions in the same solvent (NMP) were mixed. […] Therefore, such a formulation is not suitable for preparation of a stable, single-phase formulation of octreotide in SAIB/NMP solution.
(§1) Octreotide acetate (OCT-Ac), octreotide dodecyl sulfate (OCT-SDS) and octreotide docusate (OCT-DSS) complex powders were dissolved in NMP. Then the solutions containing various salt forms of octreotide were thoroughly mixed with SAIB solution in NMP (90% w/w).
Chunky solid precipitates were observed and an inhomogeneous formulation was obtained as observed in Example 1. This inhomogeneous formulation will block needles and is not suitable for injection. […] This formulation can be prepared immediately prior to administration or suitable for storage for a period of time by adjusting the formulation parameters. […] This formulation may be packaged and stored for a long period of time at room temperature.
Octreotide acetate (OCT-Ac) and octreotide dodecyl sulfate (OCT-SDS) complex powders were dissolved in NMP. Then the solutions containing various salt forms of octreotide were thoroughly mixed with SAIB solution in NMP (90% w/w).
A chunky aggregate was formed at the bottom of the formulation (FIG. 1(a)). This inhomogeneous formulation is clearly not suitable for injection to form a consistent depot system in situ for controlled release.

[4] = In vitro release of pramipexole from SAIB formulations; conditions: PBS buffer, 37° C., about 6% PPL in 90% SAIB in NMP
Protocol: Formulations containing about 6% PPL of different salt forms were prepared by mixing PPL with 90% SAIB solutions in NMP. Injections of roughly 100 mg were made into vials with 3 mL PBS buffer and 0.1% NaN3. Gel-like pellets formed and the vials were placed on a shaker at 37° C. The release of PPL was measured by removing 2 mL of the release media at specified times and replacing it with 2 mL of fresh buffer. The concentration in the release media was determined by reverse phase HPLC.

[5] = In vitro release of leuprolide from SAIB/NMP formulations; conditions: after two weeks; PBS 7.4, 37° C.; SAIB/NMP formulation, about 6% leuprolide
Protocol: (§2) In another embodiment, the release rate of the compositions of the present invention was determined in vitro. About 0.1 mL of each formulation was injected into 3 mL of releasing buffer (PBS 7.4, containing 0.1% sodium azide) in a 4 mL glass vial. The vials were incubated at 37° C. and sampled at various time points. At each time point, 2 mL of release medium was removed and replaced with 2 mL of fresh release medium. The collected samples were analyzed for bioactive substance concentration and integrity by HPLC using an YMC-Pack ODS-120A column or equivalent. Triplicate samples were used for each formulation.
Formulations were prepared by mixing leuprolide acetate (LA-Ac), leuprolide dodecyl sulfate (LA-SDS), leuprolide docusate (LA-DSS) and leuprolide oleate (LA-OL) complex powders with SAIB solution in NMP (90% w/w).
An aliquot of the suspension was used for the in vitro release. About 0.1 mL of each leuprolide formulation was injected into 3 mL of releasing buffer (PBS 7.4, containing 0.1% sodium azide) in a 4 mL glass vial. The vials were incubated at 37° C. and sampled at various time points. At each time point, 2 mL of release medium was removed and replaced with 2 mL of fresh release medium. The collected samples were analyzed for peptide concentration and integrity by HPLC using an YMC-Pack ODS-120A column. Triplicate samples were used for each formulation.

[6] = Stability of the octreotide in formulations at room temperature over time (HPLC); conditions: SAIB/NMP formulation
Source text: Those peaks were not observed from the formulation at the beginning, indicating the generation of impurities or degradation products of the octreotide. The intensity of these peaks increased with the increase of time, while the peak for octreotide decreases over time. […] Therefore, this type of formulation must be modified to be suitable for controlled release delivery of various bioactive substances.
as §1
After two hours, about 4% of the octreotide was degraded or reacted.

[7] = In vitro release of octreotide from SAIB/NMP formulations; conditions: PBS 7.4, 37° C., SAIB/NMP formulation, about 6% octreotide
Protocol: as §2
An aliquot of the suspension was used for the in vitro release. About 0.1 mL of each formulation containing octreotide was injected into 3 mL of releasing buffer (PBS 7.4, containing 0.1% sodium azide) in a 4 mL glass vial. The vials were incubated at 37° C. and sampled at various time points. At each time point, 2 mL of release medium was removed and replaced with 2 mL of fresh release medium. The collected samples were analyzed for peptide concentration and integrity by HPLC using an YMC-Pack ODS-120A column. Triplicate samples were used for each formulation.

[8] = Integrity of GEN-DSS SAIB/NMP pellets in PBS buffer; conditions: about 6% and 2% GEN-DSS with 90% SAIB in NMP, incubated at 37° C.
Protocol: Formulations containing about 6% and 2% GEN-DSS with 90% SAIB in NMP were prepared. Injections of roughly 100 mg were made into vials with 3 mL PBS buffer and 0.1% NaN3. Gel-like pellets were formed at room temperature.

Question: Which “Release (%) of DOX” value [1] does the source give for `COc1cccc2c1C(=O)c1c(O)c3c(c(O)c1C2=O)C[C@@](O)(C(=O)CO)C[C@@H]3O[C@H]1C[C@H](N)[C@H](O)[C@H](C)O1` [DOX-HCl, doxorubicin hydrochloride] here?
Answer: More than 70%

Question: For lysozyme [LYZ], which “phase behaviour of pellets” value [2] is on record?
Answer: phase separated after one day

Question: With octreotide dodecyl sulfate [OCT-SDS] as the compound, how does the “appearance when combined with SAIB/NMP solution” value ([3]; Example 7, SAIB about 70%) read?
Answer: homogeneous suspension

Question: And the “phase separation after 24 hours” value ([3]; Example 8, SAIB about 80%, room temperature, 24 h)?
Answer: no significant phase separation

Question: What about the “appearance when combined with SAIB/NMP solution” value ([3]; Example 8, SAIB about 80%) of the same compound?
Answer: homogeneous milky suspension

Question: For `CCCCC(CC)COC(=O)CC(C(=O)OCC(CC)CCCC)S(=O)(=O)O.COc1cccc2c1C(=O)c1c(O)c3c(c(O)c1C2=O)CC(O)(C(=O)CO)CC3OC1CC(N)C(O)C(C)O1` (centres unmarked) [DOX-DSS, doxorubicin docusate], which “Release (%) of DOX” value [1] is on record?
Answer: Less than 8%

Question: What about the “reduction of the initial burst release of DOX by complexation with DSS” value ([1]; versus DOX-HCl formulation) of the same compound?
Answer: ~10 fold

Question: Which pramipexole released ([4]; after one week) does the source give for `CCCN[C@H]1CCc2nc(N)sc2C1.Cl` [PPL-HCl] here?
Answer: about 90%

Question: What about the pramipexole released ([4]; within 24 hours) of the same compound?
Answer: More than 60%

Question: Which leuprolide released [5] does the source give for `CCNC(=O)[C@@H]1CCCN1C(=O)[C@H](CCCNC(=N)N)NC(=O)[C@H](CC(C)C)NC(=O)[C@@H](CC(C)C)NC(=O)[C@H](Cc1ccc(O)cc1)NC(=O)[C@H](CO)NC(=O)[C@H](Cc1c[nH]c2ccccc12)NC(=O)[C@H](Cc1c[nH]cn1)NC(=O)[C@@H]1CCC(=O)N1` [LA-Ac, leuprolide acetate] here?
Answer: almost all

Question: With `C[C@@H](O)[C@@H]1NC(=O)[C@H](CCCCN)NC(=O)[C@@H](Cc2c[nH]c3ccccc23)NC(=O)[C@H](Cc2ccccc2)NC(=O)[C@@H](NC(=O)[C@H](N)Cc2ccccc2)CSSC[C@@H](C(=O)N[C@H](CO)[C@@H](C)O)NC1=O` [OCT-Ac, octreotide acetate] as the compound, how does the “appearance on mixing with SAIB solution in NMP” value ([3]; Example 1, about 6% octreotide acetate, SAIB solution in NMP (80%)) read?
Answer: opaque suspension with chunky aggregates

Question: And the “phase separation on standing” value ([3]; Example 1, room temperature overnight)?
Answer: two distinguished phases

Question: What about the “phase separation on standing” value ([3]; Example 1, room temperature, within a few hours) of the same compound?
Answer: appearance of phase separation was observed

Question: And the “appearance when combined with SAIB/NMP solution” value ([3]; Example 7, SAIB about 70%)?
Answer: phase separation occurred immediately

Question: And the “appearance when combined with SAIB/NMP solution” value ([3]; Example 8, SAIB about 80%)?
Answer: phase separation occurred even faster

Question: What about the octreotide degraded ([6]; after 5 days) of the same compound?
Answer: More than half

Question: And the “octreotide degraded or reacted” value ([6]; after two hours)?
Answer: about 4%

Question: And the octreotide released ([7]; after two weeks)?
Answer: more than 90%

Question: And the octreotide released ([7]; within 24 hours)?
Answer: More than 60%

Question: Which “phase behaviour of pellets” value [2] does the source give for Lysozyme Docusate [LYZ-DSS] here?
Answer: remained one phase

Question: For octreotide docusate [OCT-DSS], which “appearance when combined with SAIB/NMP solution” value ([3]; Example 7, SAIB about 70%) is on record?
Answer: transparent uniform solution

Question: For leuprolide oleate [LA-OL], which leuprolide released [5] is on record?
Answer: almost all

Question: For Gentamycin Docusate [GEN-DSS], which “behaviour of gel-like pellets” value [8] is on record?
Answer: began to disintegrate and fall apart within a few hours
